Where two headings read alike, the source gives them in different places.
Tests used:
Format in all cases: in vivo
[1] = tested on: Eastern Subterranean Reticulitermes flavipes termites; assay: Transfer effects among nestmates (donor/recipient Petri dish arenas); conditions: Reticulitermes flavipes, donors treated with 50 ppm
Description: (§1) The purpose of this study was to determine whether there is transference of […] among nestmates of subterranean termites. Arenas for this study consisted of a 15 cm Petri dish. […] Donor and untreated marked control termites were marked using RustOleum® Marking Paint, using methodology described by Keefer et al. 2012.
(§2) Two untreated soldier termites for each species were added to each arena to simulate colony dynamics. Post-treatment observations for mortality were made at 4 h and then daily through day 7.

[2] = tested on: Formosan Coptotermes formosanus termites; assay: as above; conditions: donors treated with 50 ppm; for mortality at 50 ppm: Coptotermes formosanus
Description: as §1, §2

[3] = tested on: Eastern subterranean termites (Reticulitermes flavipes); assay: Thin plate bioassay
Description: (§3) A laboratory study was conducted, using recently collected R. flavipes and C. formosanus. Thin plate bioassays were assembled using 0.6 cm glass and 0.6 cm clear Lexan. A sheet of 20.3×66 cm glass was used for the bottom. Two pieces of 2.5×61 cm glass were laid along the long edges, and two pieces of […]. Each arena had 450 g of screened sand evenly applied, and moistened with deionized water to help hold it in place during construction of the arenas. Fisher brand tongue depressors, cut in half, were used as a food source for the termites, and placed at one end of the arena. Prior to adding the Lexan top sheets, 0.6 cm holes were drilled at one end, and three 0.6 cm treatment apertures were drilled equally spaced apart at the center line. One 8 cm Petri dish with a 0.6 cm hole drilled in the bottom was lined up with the hole at the end of the top sheet, and glued down. Glue was allowed to dry for 72 hours. Large binder clips were used to hold the arena together.
(§4) Termiticide solutions were prepared as follows: Fipronil 0.017%; Fipronil 0.03%; Imidacloprid 0.05%; Imi-Fip 0.067% (Imidacloprid 0.05%, Fipronil 0.017%); and Untreated Control (water only). Ten ml of each finished solution of termiticide were applied to each arena: each of the three treatment apertures received 3.3 ml of termiticide. The treatments were allowed to dry for 24 hours, and the treatment apertures were covered with a 2.5×7.5 cm microscope slide. In each Petri dish, 500 worker and 15 soldier termites were added, using either R. flavipes or C. formosanus. Each treatment was replicated four times. Data regarding distance tunneled and mortality were collected daily for eight days. Data was analyzed using Analysis of Variance (ANOVA) and means were separated by Tukey's HSD (Honest Significant Difference test (IBM SPSS v 19).

[4] = tested on: Formosan subterranean termites (Coptotermes formosanus); assay: Thin plate bioassay
Description: as §3, §4

[5] = 4 h, donor:recipient ratio 1:19, 4 h, read-out: Mean total % mortality of donors and recipients
[6] = 4 h, donor:recipient ratio 5:15, 4 h, read-out: Mean total % mortality of donors and recipients
[7] = 4 h, donor:recipient ratio 10:10, 4 h, read-out: Mean total % mortality of donors and recipients
[8] = 4 h, donor:recipient ratio 15:5, 4 h, read-out: Mean total % mortality of donors and recipients
[9] = 24 h, by treatment (all ratios), 1 d, read-out: Mean % mortality of donors and recipients
[10] = 24 h, donor:recipient ratio 1:19, 1 d, read-out: Mean total % mortality of donors and recipients
[11] = 24 h, donor:recipient ratio 5:15, 1 d, read-out: Mean total % mortality of donors and recipients
[12] = 24 h, donor:recipient ratio 10:10, 1 d, read-out: Mean total % mortality of donors and recipients
[13] = 24 h, donor:recipient ratio 15:5, 1 d, read-out: Mean total % mortality of donors and recipients
[14] = 48 h, by treatment (all ratios), 2 d, read-out: Mean % mortality of donors and recipients
[15] = 48 h, donor:recipient ratio 1:19, 2 d, read-out: Mean total % mortality of donors and recipients
[16] = 48 h, donor:recipient ratio 5:15, 2 d, read-out: Mean total % mortality of donors and recipients
[17] = 48 h, donor:recipient ratio 10:10, 2 d, read-out: Mean total % mortality of donors and recipients
[18] = 48 h, donor:recipient ratio 15:5, 2 d, read-out: Mean total % mortality of donors and recipients
[19] = 72 h, by treatment (all ratios), 3 d, read-out: Mean % mortality of donors and recipients
[20] = 72 h, donor:recipient ratio 1:19, 3 d, read-out: Mean total % mortality of donors and recipients
[21] = 72 h, donor:recipient ratio 5:15, 3 d, read-out: Mean total % mortality of donors and recipients
[22] = 72 h, donor:recipient ratio 10:10, 3 d, read-out: Mean total % mortality of donors and recipients
[23] = 72 h, donor:recipient ratio 15:5, 3 d, read-out: Mean total % mortality of donors and recipients
[24] = 96 h, by treatment (all ratios), 4 d, read-out: Mean % mortality of donors and recipients
[25] = 96 h, donor:recipient ratio 1:19, 4 d, read-out: Mean total % mortality of donors and recipients
[26] = 96 h, donor:recipient ratio 5:15, 4 d, read-out: Mean total % mortality of donors and recipients
[27] = 96 h, donor:recipient ratio 10:10, 4 d, read-out: Mean total % mortality of donors and recipients
[28] = 96 h, donor:recipient ratio 15:5, 4 d, read-out: Mean total % mortality of donors and recipients
[29] = 120 h, by treatment (all ratios), 5 d, read-out: Mean % mortality of donors and recipients
[30] = 120 h, donor:recipient ratio 1:19, 5 d, read-out: Mean total % mortality of donors and recipients
[31] = 120 h, donor:recipient ratio 5:15, 5 d, read-out: Mean total % mortality of donors and recipients
[32] = 120 h, donor:recipient ratio 10:10, 5 d, read-out: Mean total % mortality of donors and recipients
[33] = 120 h, donor:recipient ratio 15:5, 5 d, read-out: Mean total % mortality of donors and recipients
[34] = 144 h, by treatment (all ratios), 6 d, read-out: Mean % mortality of donors and recipients
[35] = 144 h, donor:recipient ratio 1:19, 6 d, read-out: Mean total % mortality of donors and recipients
[36] = 144 h, donor:recipient ratio 5:15, 6 d, read-out: Mean total % mortality of donors and recipients
[37] = 144 h, donor:recipient ratio 10:10, 6 d, read-out: Mean total % mortality of donors and recipients
[38] = 144 h, donor:recipient ratio 15:5, 6 d, read-out: Mean total % mortality of donors and recipients
[39] = 168 h, by treatment (all ratios), 7 d, read-out: Mean % mortality of donors and recipients
[40] = 168 h, donor:recipient ratio 1:19, 7 d, read-out: Mean total % mortality of donors and recipients
[41] = 168 h, donor:recipient ratio 5:15, 7 d, read-out: Mean total % mortality of donors and recipients
[42] = 168 h, donor:recipient ratio 10:10, 7 d, read-out: Mean total % mortality of donors and recipients
[43] = 168 h, donor:recipient ratio 15:5, 7 d, read-out: Mean total % mortality of donors and recipients
[44] = 0.017% solution, 1 day post-treatment
[45] = 0.017% solution, 2 days post-treatment
[46] = 0.017% solution, 3 days post-treatment
[47] = 0.017% solution, 4 days post-treatment
[48] = 0.017% solution, 5 days post-treatment
[49] = 0.017% solution, 6 days post-treatment
[50] = 0.017% solution, 7 days post-treatment
[51] = 0.017% solution, 8 days post-treatment
[52] = 0.03% solution, 1 day post-treatment
[53] = 0.03% solution, 2 days post-treatment
[54] = 0.03% solution, 3 days post-treatment
[55] = 0.03% solution, 4 days post-treatment
[56] = 0.03% solution, 5 days post-treatment
[57] = 0.03% solution, 6 days post-treatment
[58] = 0.03% solution, 7 days post-treatment
[59] = 0.03% solution, 8 days post-treatment

In the case of N#Cc1nn(-c2c(Cl)cc(C(F)(F)F)cc2Cl)c(N)c1[S+]([O-])C(F)(F)F [Fipronil, 5-amino-1-[2,6-dichloro-4-(trifluoromethyl)phenyl]-4-[(1-R,S)(trifluoromethyl)sulfinyl]-1H-pyrazole-3-carbonitrile], the mortality at 50 ppm ([1]; 4 h, by treatment (all ratios), 4 h, read-out: Mean % mortality of donors and recipients) is reported as 3.75%, the mortality at 50 ppm [1, 5] is reported as 3.75% and the mortality at 50 ppm [1, 6] is reported as 5%. It also gave a mortality at 50 ppm [1, 7] of 1.25%, a mortality at 50 ppm [1, 8] of 5% and a mortality at 50 ppm [1, 9] of 23.5%. For the same compound, the mortality at 50 ppm [1, 10] was 10%, the mortality at 50 ppm [1, 11] was 17.5% and the mortality at 50 ppm [1, 12] was 17.5%. It also gave a mortality at 50 ppm [1, 13] of 56.2%, a mortality at 50 ppm [1, 14] of 57.2% and a mortality at 50 ppm [1, 15] of 16.2%. The mortality at 50 ppm [1, 16] was 53.8%, the mortality at 50 ppm [1, 17] was 71.2% and the mortality at 50 ppm [1, 18] was 87.5%. The mortality at 50 ppm [1, 19] was 70.3%, the mortality at 50 ppm [1, 20] was 22.5% and the mortality at 50 ppm [1, 21] was 70%. It also gave a mortality at 50 ppm [1, 22] of 88.8%, a mortality at 50 ppm [1, 23] of 100% and a mortality at 50 ppm [1, 24] of 72.8%. It also gave a mortality at 50 ppm [1, 25] of 26.2%, a mortality at 50 ppm [1, 26] of 72.5% and a mortality at 50 ppm [1, 27] of 92.5%. It also gave a mortality at 50 ppm [1, 28] of 100%, a mortality at 50 ppm [1, 29] of 83.8% and a mortality at 50 ppm [1, 30] of 52.5%. For the same compound, the mortality at 50 ppm [1, 31] was 82.5%, the mortality at 50 ppm [1, 32] was 100% and the mortality at 50 ppm [1, 33] was 100%. For the same compound, the mortality at 50 ppm [1, 34] was 98.1%, the mortality at 50 ppm [1, 35] was 97.5% and the mortality at 50 ppm [1, 36] was 95%. It also gave a mortality at 50 ppm [1, 37] of 100%, a mortality at 50 ppm [1, 38] of 100% and a mortality at 50 ppm [1, 39] of 100%. It also gave a mortality at 50 ppm [1, 40] of 100%, a mortality at 50 ppm [1, 41] of 100% and a mortality at 50 ppm [1, 42] of 100%. For the same compound, the mortality at 50 ppm [1, 43] was 100%, the mortality at 50 ppm [2, 5] was 0% and the mortality at 50 ppm [2, 6] was 3.75%. The mortality at 50 ppm [2, 7] was 17.5%, the mortality at 50 ppm [2, 8] was 16.2% and the mortality at 50 ppm [2, 9] was 50.6%. The mortality at 50 ppm [2, 10] was 0%, the mortality at 50 ppm [2, 11] was 2.5% and the mortality at 50 ppm [2, 12] was 100%. The mortality at 50 ppm [2, 13] was 100%, the mortality at 50 ppm [2, 14] was 53.1% and the mortality at 50 ppm [2, 15] was 8.75%. It also gave a mortality at 50 ppm [2, 16] of 3.75%, a mortality at 50 ppm [2, 17] of 100% and a mortality at 50 ppm [2, 18] of 100%. For the same compound, the mortality at 50 ppm [2, 19] was 59.7%, the mortality at 50 ppm [2, 20] was 18.8% and the mortality at 50 ppm [2, 21] was 20%. It also gave a mortality at 50 ppm [2, 22] of 100%, a mortality at 50 ppm [2, 23] of 100% and a mortality at 50 ppm [2, 24] of 67.8%. It also gave a mortality at 50 ppm [2, 25] of 25%, a mortality at 50 ppm [2, 26] of 46.2% and a mortality at 50 ppm [2, 27] of 100%. It also gave a mortality at 50 ppm [2, 28] of 100%, a mortality at 50 ppm [2, 29] of 82.5% and a mortality at 50 ppm [2, 30] of 30%. It also gave a mortality at 50 ppm [2, 31] of 100%, a mortality at 50 ppm [2, 32] of 100% and a mortality at 50 ppm [2, 33] of 100%. For the same compound, the mortality at 50 ppm [2, 34] was 85.5%, the mortality at 50 ppm [2, 35] was 30% and the mortality at 50 ppm [2, 36] was 100%. It also gave a mortality at 50 ppm [2, 37] of 100%, a mortality at 50 ppm [2, 38] of 100% and a mortality at 50 ppm [2, 39] of 90%. It also gave a mortality at 50 ppm [2, 40] of 60%, a mortality at 50 ppm [2, 41] of 100% and a mortality at 50 ppm [2, 42] of 100%. For the same compound, the mortality at 50 ppm [2, 43] was 100%, the “Mean % mortality of donors and recipients” value ([2]; by treatment (all ratios), 4 h) was 9.37 b % and the “Mean % mortality of donors and recipients” value ([2]; by treatment (all ratios), 4 h, listed as fipronil) was 1%. The Mean % mortality [3, 44] was 5.25 a %, the Mean % mortality [3, 45] was 30.50 a % and the Mean % mortality [3, 46] was 75.00 a %. The Mean % mortality [3, 47] was 77.50 a %, the Mean % mortality [3, 48] was 90.00 b % and the Mean % mortality [3, 49] was 95.50 b %. The Mean % mortality [3, 50] was 100.00 a %, the Mean % mortality [3, 51] was 100.00 a % and the Mean % mortality [3, 52] was 0.75 b %. The Mean % mortality [3, 53] was 2.25 b %, the Mean % mortality [3, 54] was 67.50a % and the Mean % mortality [3, 55] was 70.00 a %. For the same compound, the Mean % mortality [3, 56] was 90.00 b %, the Mean % mortality [3, 57] was 100.00 a % and the Mean % mortality [3, 58] was 100.00 a %. The Mean % mortality [3, 59] was 100.00 a %, the Mean % mortality [4, 44] was 1.37 a % and the Mean % mortality [4, 45] was 8.62 b %. For the same compound, the Mean % mortality [4, 46] was 15.00 a %, the Mean % mortality [4, 47] was 30.60 a % and the Mean % mortality [4, 48] was 72.20 a %. The Mean % mortality [4, 49] was 72.20 c %, the Mean % mortality [4, 50] was 83.50 b % and the Mean % mortality [4, 51] was 100.00a %. The Mean % mortality [4, 52] was 5.05 a %, the Mean % mortality [4, 53] was 17.25ab % and the Mean % mortality [4, 54] was 19.75 a %. For the same compound, the Mean % mortality [4, 55] was 49.40 a %, the Mean % mortality [4, 56] was 70.50 a % and the Mean % mortality [4, 57] was 99.25 a %. The Mean % mortality [4, 58] was 100.00 a % and the Mean % mortality [4, 59] was 100.00a %.

— patent publication US12446584B2, “Termiticide composition and methods for treating termites” (ADAMA MAKHTESHIM LTD., priority 2013, dated 2025)
